Experimental data: patent US8969554B2, “6-acyl-1,2,4-triazine-3,5-dione derivative and herbicides” (Kumiai Chemical Industry Co., Ltd., priority 2010, dated 2015)

Columns and labels:
Assay type in all cases: in vivo
[1] = test system: Echinochloa crus-galli; assay: Herbicidal activity by field soil treatment (Test example 2); set-up: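 index 0 to 10 in 10% steps of herbicidal effect with 10 meaning complete death and 0 below 10%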; details: 1000 g effective component per hectare, day 21 after the treatment
Summary of the method: (§1)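 Pre-covered sown seed in field-soil pots (80 cm^2) got a soil-surface application of 1000 g/ha active ingredient, sprayed as a diluted wettable powder at 1000 L/ha water volume. Greenhouse-grown; herbicidal activity graded by criteria at 21 days post-application.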

[2] = test system: A. retroflexus; assay: as above; set-up: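 index 0 to 10 in 10% steps of herbicidal effect with 10 meaning complete death and 0 below 10%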; details: 1000 g effective component per hectare, day 21 after the treatment
Summary of the method: as §1

[3] = test system: Indian millet; assay: as above; set-up: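 index 0 to 10 in 10% steps of herbicidal effect with 10 meaning complete death and 0 below 10%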; details: 1000 g effective component per hectare, day 21 after the treatment
Summary of the method: as §1

[4] = test system: Monochoria vaginalis; assay: Herbicidal activity by paddy field soil treatment (Test Example 1); set-up: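 index 0 to 10 in 10% steps of herbicidal effect with 10 meaning complete death and 0 below 10%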; details: 1000 g of effective component per hectare, evaluated on day 21 after the treatment, criteria of Table 72
Summary of the method: (§2)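 Using sown, 3 cm-flooded paddy soil pots, we apply diluted wettable powder to the water on day 1 post-sowing (1000 g active/ha), keep plants in a greenhouse, and grade herbicidal effects 21 days post-treatment.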

[5] = test system: Scirpus juncoides Rocxb.; assay: as above; set-up: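 index 0 to 10 in 10% steps of herbicidal effect with 10 meaning complete death and 0 below 10%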; details: applied on water surface, 1000 g of effective component per hectare, day 21 after the treatment
Summary of the method: as §2

[6] = test system: Echinochloa oryzicola; assay: as above; set-up: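 index 0 to 10 in 10% steps of herbicidal effect with 10 meaning complete death and 0 below 10%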; details: 1000 g of effective component per hectare, evaluated on day 21 after the treatment, criteria of Table 72
Summary of the method: as §2

[7] = test system: Echinochloa crus-galli; assay: Herbicidal activity by field foliage treatment (Test example 3); set-up: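 index 0 to 10 in 10% steps of herbicidal effect with 10 meaning complete death and 0 below 10%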; details: 1000 g effective component per hectare, day 14 after the treatment
Summary of the method: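 Herbicidal effect was rated on day 14 following a foliar spray of 1000 g active ingredient per hectare, applied as water-diluted wettable powder at 1000 L/ha. Plants had been raised for 2 weeks in field soil under greenhouse conditions before spraying.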

[8] = test system: A. retroflexus; assay: as above; set-up: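 index 0 to 10 in 10% steps of herbicidal effect with 10 meaning complete death and 0 below 10%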; details: 1000 g effective component per hectare, day 14 after the treatment
Summary of the method: (§3)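 Greenhouse foliar treatment at 1000 g a.i./ha of 2-week-old plants; herbicidal score at day 14.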

[9] = test system: Indian millet; assay: as above; set-up: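 index 0 to 10 in 10% steps of herbicidal effect with 10 meaning complete death and 0 below 10%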; details: 1000 g effective component per hectare, day 14 after the treatment
Summary of the method: as §3

[10] = test system: Setaria viridis; assay: as above; details: 1000 g effective component per hectare, day 14 after the treatment;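 further: index 0 to 10 in 10% steps of herbicidal effect with 10 meaning complete death and 0 below 10%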
Protocol: Test example 3 Test for Determining Herbicidal Activity by Field Foliage Treatment A 80 cm^2 wide plastic pot was filled with a field soil and seeds of each of Indian millet and A. retroflexus were sowed and then incubated for 2 weeks in a green house. The wettable powder produced with reference to the Formulation example 1 was diluted water, and applied from the air to entire body of the plant as foliage treatment by using a small sprayer in an amount of 1000 liters per hectare so that the effective component is 1000 g per hectare. After that, the plants were cultivated in a greenhouse, and on day 14 after the treatment, evaluation was made by the criteria described in Table 72 for determining the herbicidal effects.

SMILES	herbicidal effect index, Echinochloa crus-galli [1]	herbicidal effect index, Amaranthus retroflexus [2]	herbicidal effect index, Abutilon theophrasti [3]	Herbicidal effects index number, Monochoria vaginalis [4]	herbicidal effect index, S. juncoides Rocxb. [5]	Herbicidal effects index number, Echinochloa oryzicola [6]	herbicidal effect index, Echinochloa crus-galli [7]	herbicidal effect index, Amaranthus retroflexus [8]	herbicidal effect index, Abutilon theophrasti [9]	herbicidal effect index, Setaria viridis [10]
Cn1nc(C(=O)C2=C(O)C(C)(C)CCC2=O)c(=O)n(-c2ccccc2)c1=O [VI-5]	8	10	10	10	10	10	10	10	10	10
CSCn1c(=O)c(C(=O)C2=C(O)CCCC2=O)nn(C)c1=O [I-43]	10	10	–	10	10	10	8	10	9	8
Cn1nc(C(=O)C2=C(O)CCCC2=O)c(=O)n(-c2ccc(Cl)cn2)c1=O [I-185]	9	10	10	9	9	8	10	10	9	9
CC(Cn1c(=O)c(C(=O)C2=C(O)CCCC2=O)nn(C)c1=O)=NOC(C)C [I-479]	9	10	10	10	10	10	9	10	9	7
CON=C(C)Cn1c(=O)c(C(=O)C2=C(O)CCCC2=O)nn(C)c1=O [I-471]	7	10	10	10	10	10	9	10	10	10
CON=C(C)Cn1c(=O)c(C(=O)O)nn(C)c1=O [V-365]	7	10	10	10	10	10	9	10	10	10
COc1c(F)cc(-n2c(=O)c(C(=O)C3=C(O)CCCC3=O)nn(C)c2=O)cc1F [Compound I-167]	8	10	10	–	–	–	10	10	10	8
Cn1nc(C(=O)O)c(=O)n(-c2cc(Cl)c(Cl)c(Cl)c2)c1=O [V-358]	–	10	10	10	10	10	8	10	10	10
C#Cc1ccc(-n2c(=O)c(C(=O)C3=C(O)CCCC3=O)nn(C)c2=O)nc1 [I-463]	–	7	10	10	10	10	7	10	9	7
Cn1nc(C(=O)C2=C(O)CCCC2=O)c(=O)n(-c2cc(Cl)c(Cl)c(Cl)c2)c1=O [I-465]	–	10	10	10	10	10	8	10	10	10
Cn1nc(C(=O)C2=C(O)CCCC2=O)c(=O)n(-c2ccccc2)c1=S [I-263]	–	10	8	10	10	10	9	10	10	9
Cn1nc(C(=O)C2=C(O)CC(C)(C)CC2=O)c(=O)n(-c2ccccc2)c1=O [VI-6]	–	10	9	10	10	10	8	10	10	10
Cn1nc(C(=O)C2=C(O)C(C)(C)C(=O)C(C)(C)C2=O)c(=O)n(-c2ccccc2)c1=O [VI-1]	–	10	10	10	10	10	10	10	10	10
